Assay results published in ChEMBL document CHEMBL6103569, “Discovery of novel fluorine-containing parthenolide analogues as potential antitumor agents” (Eur J Med Chem, 2025).

What was measured:
[1] = Antiproliferative activity against human NCI-H820 cells assessed as inhibition of cell growth incubated for 72 hrs by MTT assay; type: functional, cell-based; conditions: nci-h820
Huh-7 = assay: Antiproliferative activity against human Huh-7 cells assessed as inhibition of cell growth incubated for 72 hrs by MTT assay; type: functional, cell-based; conditions: huh-7
PANC-1 = assay: Antiproliferative activity against human PANC-1 cells assessed as inhibition of cell growth incubated for 72 hrs by MTT assay; type: functional, cell-based; conditions: panc-1
[2] = Prodrug conversion of the compound in HEPES buffer assessed as (1aR,7aS,10aS,10bS)-1a-methyl-8-methylene-5-(2,2,2-trifluoroethyl)-2,3,6,7,7a,8,10a,10b-octahydrooxireno[2',3':9,10]cyclodeca[1,2-b]furan-9(1aH)-one formation by measuring half life at pH 7.4 by RP-HPLC analysis; type: ADME
[3] = Half life in male BALB/c mouse at 10 mg/kg, iv measured upto 24 hrs by LC-MS/MS analysis; type: ADME, organism-based; conditions: in vivo
[4] = Half life in male BALB/c mouse at 50 mg/kg, po measured upto 24 hrs by LC-MS/MS analysis; type: ADME, organism-based; conditions: in vivo
[5] = Tmax in male BALB/c mouse at 50 mg/kg, po measured upto 24 hrs by LC-MS/MS analysis; type: ADME, organism-based; conditions: in vivo
[6] = Cmax in male BALB/c mouse at 50 mg/kg, po measured upto 24 hrs by LC-MS/MS analysis; type: ADME, organism-based; conditions: in vivo
[7] = Initial plasma concentration in male BALB/c mouse at 10 mg/kg, iv measured upto 24 hrs by LC-MS/MS analysis; type: ADME, organism-based
[8] = AUC (0 to t) in male BALB/c mouse at 10 mg/kg, iv measured upto 24 hrs by LC-MS/MS analysis; type: ADME, organism-based; conditions: in vivo
[9] = AUC (0 to t) in male BALB/c mouse at 50 mg/kg, po measured upto 24 hrs by LC-MS/MS analysis; type: ADME, organism-based; conditions: in vivo
[10] = AUC (0 to infinity) in male BALB/c mouse at 10 mg/kg, iv measured upto 24 hrs by LC-MS/MS analysis; type: ADME, organism-based; conditions: in vivo
[11] = AUC (0 to infinity) in male BALB/c mouse at 50 mg/kg, po measured upto 24 hrs by LC-MS/MS analysis; type: ADME, organism-based; conditions: in vivo
[12] = Volume of distribution in male BALB/c mouse at 10 mg/kg, iv measured upto 24 hrs by LC-MS/MS analysis; type: ADME, organism-based; conditions: in vivo
[13] = Clearance in male BALB/c mouse at 10 mg/kg, iv measured upto 24 hrs by LC-MS/MS analysis; type: ADME, organism-based; conditions: in vivo
[14] = MRT (0 to t) in male BALB/c mouse at 10 mg/kg, iv measured upto 24 hrs by LC-MS/MS analysis; type: ADME, organism-based; conditions: in vivo
[15] = MRT (0 to t) in male BALB/c mouse at 50 mg/kg, po measured upto 24 hrs by LC-MS/MS analysis; type: ADME, organism-based; conditions: in vivo
[16] = Oral bioavailability in male BALB/c mouse at 50 mg/kg measured upto 24 hrs by LC-MS/MS analysis; type: ADME, organism-based; conditions: in vivo
[17] = Acute toxicity in BALB/c mouse assessed as change in body weight at 100 mg/kg, po; type: organism-based; conditions: in vivo
[18] = Acute toxicity in BALB/c mouse assessed as liver damage at 100 mg/kg, po; type: organism-based; conditions: in vivo
[19] = Acute toxicity in BALB/c mouse assessed as spleen damage at 100 mg/kg, po; type: organism-based; conditions: in vivo
[20] = Acute toxicity in BALB/c mouse assessed as lung damage at 100 mg/kg, po; type: organism-based; conditions: in vivo
[21] = Acute toxicity in BALB/c mouse assessed as kidney damage at 100 mg/kg, po; type: organism-based; conditions: in vivo
[22] = Acute toxicity in BALB/c mouse assessed as brain damage at 100 mg/kg, po; type: organism-based; conditions: in vivo
[23] = Acute toxicity in BALB/c mouse assessed as heart damage at 100 mg/kg, po; type: organism-based; conditions: in vivo

## CN(C)CC1C(=O)O[C@H]2[C@H]1CC/C(CC(F)(F)F)=C\CC[C@@]1(C)O[C@@H]21.O=C(O)/C=C/C(=O)O (stereo not given in full)
[1]
  IC50: 4.18 µM
Huh-7
  IC50: 3.41 µM
PANC-1
  IC50: 4.16 µM
[2]
  t1/2: 76.8 min
[3]
  half-life: 33.2 min
[4]
  half-life: 47.9 min
[5]
  Tmax: 15 min
[6]
  Cmax: 1080 ng/mL
[7]
  C0 at 24 h: 1450 ng/mL
[8]
  AUC(0-t) at 24 h: 438 ng·h/mL
[9]
  AUC(0-t) at 24 h: 991 ng·h/mL
[10]
  AUC(0-inf): 444 ng·h/mL
[11]
  AUC(0-inf): 991 ng·h/mL
[12]
  Vd: 12.1 L/kg
[13]
  clearance: 253 mL/min/kg
[14]
  MRT last at 24 h: 24.1 min
[15]
  MRT last at 24 h: 49.7 min
[16]
  bioavailability: 45.2%
[17]
  Activity: Non-toxic
[18]
  Activity: Non-toxic
[19]
  Activity: Non-toxic
[20]
  Activity: Non-toxic
[21]
  Activity: Non-toxic
[22]
  Activity: Non-toxic
[23]
  Activity: Non-toxic
